In US9896423B2, “Deuterium substituted 1-[2-(2,4-dimethyl-phenylsulfanyl)-phenyl]piperazine compound or derivatives thereof, and pharmaceutical composition and use thereof” (Jiangsu Jibeier Pharmaceutical Co. Ltd., priority 2014, dated 2018):
Where “and” joins values, the source holds several entries; their conditions need not be identical. Equal entries are not always repeated. Structures can show the parent of a compound that is named as a salt. Where two headings read alike, the source gives them in different places.

Assays:
Male SD rats = experiment: Rats swimming test; assay type: in vivo; details: for effect on length of time that the rats stopped swimming vs blank control: 14 days; for Duration without Move within 5 min: rats swimming, gavage 14 days, n = 10, x ± s
Source text: The following method is used for testing the antidepression effect of the compound of the present application. ICR mice or SD rats, gavaged for two successive weeks, were subjected to mice swimming test, mice tail suspension test and rats swimming test. See below for details of the tests and results.
Male SD rats weighing 200 to 220 g were used and they were fed with sterilized standard feed. The medicaments were the same as those in the mice tail suspension test, but the dosage administered to rats was half of that to mice.
Drug solution preparation: Since the dosage applied on rats was 1 ml/100 g body weight, the medicament solutions used in this test had the same concentrations as those used on mice.
The apparatus was the same as that in the […].
The rats were fasted for 4 hours, put in a round glass tank (ø 18 cm×h 40 cm, with water of 15 cm depth and at a temperature of 25° C.), and were allowed to swim for 15 min. One tank accommodated one rat at a time. The tank was refilled with clean water for another rat after one rat finished swimming. The rats were dried with a hot-air blower after swimming.
The forty rats were divided into 4 groups, each of which has 10 rats, according to the Excel random grouping.
The medicaments were correspondingly administered 1 ml/100 g body weight by gavage, once a day, to the animals in each test group for 14 successive days. The rat swimming test was performed one hour later after the last administration.
The data was given as “average±standard deviation” (x±s). One-way analysis of variance (ANOVA) was used for data difference statistics. Differences among the groups were determined by P<0.05.

[1] = Pharmacokinetic test in rats, gavage administration; assay type: in vivo, SD rats
Protocol: The preferred compound of the present disclosure was assessed in rats for its pharmacokinetic profile.
SD rats, male and female, weighing 150 to 250 g
Mobile phase: 10 mM ammonium formate aqueous solution:methanol=15:85
The ionization source was electrospray ionization source. The detection mode was positive mode. Multiple reaction monitoring (MRM) was used as the scanning mode. The ion reaction for the quantitative analysis was the following: m/z was 305.2\150.0 for XX, and 256.1\167.1 for diphenhydramine (the internal standard).
XX or YY was orally administered with single dose of 20 mg/kg to six SD rats, one half of which were male and the other half was female. XX or YY was dissolved in 10% hydroxypropyl-β-cyclodextrin. […]
After the blood collection, the tubes were immediately gently turned upside down at least five times to ensure sufficient mixing, and placed on ice. Heparin was added for anticoagulation. The samples were centrifuged at 8000 rpm for 5 min to separate serum from erythrocyte. The serum was transferred with a pipettor to 2 mL polypropylene (PP) tubes, which were marked with the name of the compound and the time points, and stored in a refrigerator at −40° C. before LC-MS analysis. Samples with high concentrations were diluted with rat blank plasma.
2.5 μL of Meth-H2O and 5 μL of the internal standard solution (20 ng/mL, IS) were added to 50 μL of the plasma. Subsequently, 150 μL of methanol was added to the mixture to precipitate protein and the samples were then centrifuged at 13000 rpm for 5 min. The upper organic phase was taken out, filtrated with a 0.22 μM microporous membrane, and 2 μL of the sample was injected for the LC-MS analysis.

- bioavailability ([1]; both sexes, SD, rat, plasma, po, 20 mg/kg, rats, oral 20 mg/kg vs iv 2 mg/kg, individual rats 1-6, read-out: F %): 11%
- AUC(0-t) ([1]; both sexes, SD, rat, plasma, po, 20 mg/kg, rats, oral 20 mg/kg, individual rats 1-6, read-out: AUC0-1): 524 ng·h/mL
- AUC(0-inf) ([1]; both sexes, SD, rat, plasma, po, 20 mg/kg, rats, oral 20 mg/kg, individual rats 1-6, read-out: AUC0-∞): 532 ng·h/mL
- Cmax ([1]; both sexes, SD, rat, plasma, po, 20 mg/kg, rats, oral 20 mg/kg, individual rats 1-6, read-out: Cmax): 78.6 ng/mL
- MRT inf ([1]; both sexes, SD, rat, plasma, po, 20 mg/kg, rats, oral 20 mg/kg, individual rats 1-6, read-out: MRT0-∞): 5.62 h
- AUC(0-t) ([1]; both sexes, SD, rat, plasma, po, 20 mg/kg, rats, oral 20 mg/kg, n = 6, read-out: AUC0-1, Mean ± SD): 583 ± 82.7 ng·h/mL
- AUC(0-inf) ([1]; both sexes, SD, rat, plasma, po, 20 mg/kg, rats, oral 20 mg/kg, n = 6, read-out: AUC0-∞, Mean ± SD): 586 ± 82.8 ng·h/mL
- Cmax ([1]; both sexes, SD, rat, plasma, po, 20 mg/kg, rats, oral 20 mg/kg, n = 6, read-out: Cmax, Mean ± SD): 105 ± 26.5 ng/mL
- MRT inf ([1]; both sexes, SD, rat, plasma, po, 20 mg/kg, rats, oral 20 mg/kg, n = 6, read-out: MRT0-∞, Mean ± SD): 4.93 ± 0.58 h
- half-life ([1]; both sexes, SD, rat, plasma, po, 20 mg/kg, rats, oral 20 mg/kg, n = 6, read-out: t1/2, Mean ± SD (converted)): 2.92 ± 0.8 h
- concentration at 10 min ([1]; both sexes, Sprague-Dawley, rat, plasma, oral, 20 mg/kg, 20 mg/kg oral, 10 min (Table 5: 0.167 h), mean of 6 rats, read-out: Concentrations in Plasma of Rats after Oral Administration, Mean ± SD): 13.7 ± 6.65 ng/mL
- concentration at 0.5 h ([1]; both sexes, Sprague-Dawley, rat, plasma, oral, 20 mg/kg, 20 mg/kg oral, 0.5 h, mean of 6 rats, read-out: Concentrations in Plasma of Rats after Oral Administration, Mean ± SD): 62.9 ± 19.6 ng/mL
- concentration at 1 h ([1]; both sexes, Sprague-Dawley, rat, plasma, oral, 20 mg/kg, 20 mg/kg oral, 1 h, mean of 6 rats, read-out: Concentrations in Plasma of Rats after Oral Administration, Mean ± SD): 95.8 ± 32.9 ng/mL
- concentration at 1.5 h ([1]; both sexes, Sprague-Dawley, rat, plasma, oral, 20 mg/kg, 20 mg/kg oral, 1.5 h, individual rats 1-6, read-out: Concentrations in Plasma of Rats after Oral Administration): 73.4 ng/mL
SMILES: [2H]C([2H])([2H])c1ccc(Sc2ccccc2N2CCNCC2)c(C([2H])([2H])[2H])c1 [XX, 1-{2-[2,4-bis(trideuteriomethyl)phenylsulfanyl]phenyl}piperazine hydrobromic acid salt]
- effect on length of time that the rats stopped swimming vs blank control (Male SD rats; 0.75 mg/kg gavage): showed a tendency to shorten
- effect on length of time that the rats stopped swimming vs blank control (Male SD rats; 1.5 mg/kg gavage): markedly shortened
- Duration without Move within 5 min (Male SD rats; 0.75 mg/kg): 242.4 ± 43.2 s
- Duration without Move within 5 min (Male SD rats; 1.5 mg/kg): 226.2 ± 43.2 s
- Concentrations in Plasma of Rats after Oral Administration ([1]; 20 mg/kg oral, 10 min (Table 5: 0.167 h) after administration, individual rats 1-6): 10.6 ng/mL and 7 ng/mL and 7.88 ng/mL and 24.8 ng/mL and 15.6 ng/mL and 16.2 ng/mL
- Concentrations in Plasma of Rats after Oral Administration ([1]; 20 mg/kg oral, 1 h, individual rats 1-6): 68.4 ng/mL and 83.6 ng/mL and 55.2 ng/mL and 107.6 ng/mL and 144 ng/mL and 115.8 ng/mL
- Concentrations in Plasma of Rats after Oral Administration ([1]; 20 mg/kg oral, 1.5 h, individual rats 1-6): 91.6 ng/mL and 77.4 ng/mL and 120.8 ng/mL and 142.8 ng/mL and 109.6 ng/mL
- Concentrations in Plasma of Rats after Oral Administration ([1]; 20 mg/kg oral, 2 h, individual rats 1-6): 86.6 ng/mL and 77.8 ng/mL and 118.4 ng/mL and 119.6 ng/mL and 108 ng/mL
- Concentrations in Plasma of Rats after Oral Administration ([1]; 20 mg/kg oral, 3 h, individual rats 1-6): 65.8 ng/mL and 53.8 ng/mL and 85.8 ng/mL and 77.6 ng/mL and 71.2 ng/mL
- Concentrations in Plasma of Rats after Oral Administration ([1]; 20 mg/kg oral, 4 h, individual rats 1-6): 60.8 ng/mL and 56 ng/mL and 61.2 ng/mL and 85.6 ng/mL and 63.4 ng/mL
- Concentrations in Plasma of Rats after Oral Administration ([1]; 20 mg/kg oral, 6 h, individual rats 1-6): 48.7 ng/mL and 36.8 ng/mL and 42.8 ng/mL and 54.6 ng/mL and 35.5 ng/mL
- Concentrations in Plasma of Rats after Oral Administration ([1]; 20 mg/kg oral, 8 h, individual rats 1-6): 22.5 ng/mL and 20.9 ng/mL and 31.7 ng/mL and 25.1 ng/mL and 18.9 ng/mL
- Concentrations in Plasma of Rats after Oral Administration ([1]; 20 mg/kg oral, 10 h, individual rats 1-6): 17.9 ng/mL and 15.5 ng/mL and 20.3 ng/mL and 14.9 ng/mL and 13.5 ng/mL
- Concentrations in Plasma of Rats after Oral Administration ([1]; 20 mg/kg oral, 12 h, individual rats 1-6): 8.22 ng/mL and 6.78 ng/mL and 11.3 ng/mL and 7.08 ng/mL and 7.2 ng/mL
- Concentrations in Plasma of Rats after Oral Administration ([1]; 20 mg/kg oral, 14 h, individual rats 1-6): 4.01 ng/mL and 3.56 ng/mL and 7.32 ng/mL and 4.43 ng/mL and 3.11 ng/mL and 3.19 ng/mL
- Concentrations in Plasma of Rats after Oral Administration ([1]; 20 mg/kg oral, 24 h, individual rats 1-6): 1.46 ng/mL and 0.571 ng/mL and 0.368 ng/mL and 1.32 ng/mL and 0.365 ng/mL and 0.389 ng/mL
